# Assay results reported in ChEMBL document CHEMBL1130793, “Peptide inhibitors of N-succinyl diaminopimelic acid aminotransferase (DAP-AT): a novel class of antimicrobial compounds” (Bioorg Med Chem Lett, 1998).
# Tests used:
# [1] = tested on: Escherichia coli; assay: Regeneration time when tested against inhibition of N-Succinyl Diaminopimelic Acid Aminotransferase from Escherichia coli
# [2] = Pharmacokinetic parameter was determined; assay type: ADME
# [3] = Ratio of the Kcat and Km app was determined; assay type: ADME
# [4] = Michaelis-Menten constant was determined; assay type: ADME; conditions: read-out: Km app
# [5] = tested on: N-succinyldiaminopimelate aminotransferase (E. coli); assay: Compound was tested for 50% inhibition of N-Succinyl Diaminopimelic Acid Aminotransferase (DAP-AT) from E. coli; overall rate of substrate consumption increases at 20 mM
# [6] = tested on: N-succinyldiaminopimelate aminotransferase (E. coli); assay: Compound was tested for inhibition of N-Succinyl Diaminopimelic Acid Aminotransferase from Escherichia coli; conditions: concentration not given here
# [7] = tested on: N-succinyldiaminopimelate aminotransferase (E. coli); assay: Compound was tested for inhibition of N-Succinyl Diaminopimelic Acid Aminotransferase from Escherichia coli.; conditions: concentration not given here
# [8] = Catalytic constant was determined; assay type: ADME
T1/2 regen [1],k cat [2],k cat/Km [3],Km [4],inhibition [7],Structure (SMILES),other results
48.95 min,–,–,–,–,CC(=O)N[C@@H](CC(=O)O)C(=O)N[C@@H](CCCC(NN)C(=O)O)C(=O)O (stereo partly specified),–
6.07 min,–,–,–,–,CC(=O)N[C@@H](Cc1ccccc1)C(=O)N[C@@H](CCCC(NN)C(=O)O)C(=O)O (stereo partly specified),–
–,40 s⁻¹,25400 M⁻¹ s⁻¹,1570 µM,–,CC(=O)N[C@@H](CC(=O)[O-])C(=O)N[C@@H](CCCC(=O)C(=O)[O-])C(=O)[O-].[Li+].[Li+].[Li+],IC50 [5]: overall rate of substrate consumption increases at 20 mM; inhibition [6]: 9.3%
78.6 min,–,–,–,–,NNC(CCC[C@H](NC(=O)CCC(=O)O)C(=O)O)C(=O)O (stereo partly specified),–
–,–,273000 M⁻¹ s⁻¹,600 µM,100%,O=C(O)CCC(=O)N[C@@H](CCCC(=O)C(=O)O)C(=O)O,k cat [8]: 164 s⁻¹
–,< 2.1 s⁻¹,< 2100 M⁻¹ s⁻¹,< 1000 µM,< 0.8%,CC(=O)N[C@@H](Cc1ccccc1)C(=O)N[C@@H](CCCC(=O)C(=O)[O-])C(=O)[O-].[Li+].[Li+],–
